Test results taken from patent US20220280557A1, “Metabolic Reprogramming of Immune Cells for the Treatment or Prevention of Diseases and Disorders” (Arizona Board of Regents on behalf of Arizona State …, priority 2019, published 2022).

Assays:
[1] = Encapsulation efficiency and loading (BCA assay, absorbance spectrophotometer); assay type: physicochemical; conditions: for % EE: Table 1, encapsulated in paKG particles; for % loading: Table 1, μg of drug per mg of particles
Procedure: In one embodiment, the metabolite-based polymer or polymeric particle has at least one of high loading and high encapsulation efficiency of the at least one therapeutic agent. Encapsulation efficiency is the percentage of drug that is successfully entrapped into a polymeric particle. In one embodiment, encapsulation efficiency (% EE) is calculated by (total drug added—free non-entrapped drug) divided by the total drug added. Loading capacity is the amount of drug loaded per unit weight of a polymeric particle, indicating the percentage of mass of the polymeric particle that is due to the encapsulated drug. In one embodiment, loading capacity (% LC) can be calculated by the amount of total entrapped drug divided by the total polymeric particle weight. In one embodiment, the polymeric particle has about 50% to about 100% encapsulation efficiency of the at least one therapeutic agent. In one embodiment, the polymeric particle has about 60% to about 100% encapsulation efficiency of the at least one therapeutic agent.
(§1) Another set of polymeric particles were generated using water-oil-water emulsion encapsulating bovine collagen type II (bc2—antigen) in the presence of PFK15 in the particles. Percentage encapsulation efficiency (EE) and percentage loading (μg of drug per mg of particles) for bc2, and PFK15 was determined using BCA assay, and absorbance spectrophotometer (plate reader), respectively (Table 1). Moreover, the release of PFK15 were studied using a plate reader, and it was determined that the polymeric particles released the drug in a sustained manner over a period of 30 days.

[2] = Release of PFK15 from polymeric particles (plate reader); assay type: physicochemical; conditions: from paKG polymeric particles
Procedure: as §1

[3] = tested on: glycolysis (ECAR) in BMDCs; assay: Extracellular flux assay (ECAR); assay type: cell-based
Procedure: Reduction in CD86 expression by inhibiting glycolysis in DCs can affect pro-inflammatory DC activation in the presence of lipopolysaccharide (LPS), which is used to mimic inflammation in vitro (FIG. 5A). Therefore, it was tested if PFK15 by itself can block glycolysis in bone marrow-derived DCs (BMDCs) in the presence or absence of LPS. To assess this, the extracellular acidification rate (ECAR) of BMDCs was determined by extracellular flux assays. BMDCs treated with LPS only and no treatment were used as controls.
To test this, extracellular flux assays were used, and pre-activated DCs with LPS and no treatment were used as controls.

BMDCs = assay: CD86 / MHCII expression in BMDCs by flow cytometry; assay type: cell-based
Procedure: Next, it was assessed if the changes in BMDC glycolytic rates can affect surface co-stimulatory CD86 expression in BMDCs, using flow cytometry. In this study, pro-inflammatory DCs were defined as the frequency of […].
Since DCs indeed phagocytose paKG-based MPs in vivo, it was hypothesized that the observed reduction in paw swelling in the CIA mice treated with paKG(PFK15+bc2) MPs, may be due to the paKG(PFK15+bc2) MPs modulating DC function (FIG. 8A). Therefore, first effect of paKG(PFK15+bc2) MPs on in vitro cultured BMDCs in the form of altered CD86, MHCII, IL-10, IL-12p70 and TNFα expression in CD11c^+ cells was tested.

[4] = with and without LPS, vs LPS and no treatment

period of sustained release of PFK15 [2] [days] | percentage encapsulation efficiency of PFK15 within paKG MPs ([1]; paKG(PFK15) MPs) [%] | percentage loading efficiency of PFK15 ([1]; per mg of paKG MPs) [µg/mg] | Molecule | % EE [1] [%] | % loading [1] [µg/mg] | percentage encapsulation efficiency of bc2 ([1]; paKG(PFK15+bc2) MPs) | percentage loading efficiency of bc2 ([1]; per mg of MPs, paKG(PFK15+bc2) MPs) [µg/mg] | lowering of glycolysis (ECAR) ([3]; in the presence of LPS, vs LPS alone) [%] | ECAR in BMDCs ([3]; without LPS, vs no treatment) | frequency of pro-inflammatory BMDC populations (BMDCs; in the absence of LPS, vs no treatment) | decrease of frequency of CD86+MHCII+ of CD11c+ BMDCs (BMDCs; in the presence of LPS, vs LPS) | CD86 expression in CD11c+ cells (BMDCs; [4]) | anti-inflammatory BMDC populations (BMDCs; [4])
 |  |  | bc2: bovine collagen type II (bc2) antigen | 60 | 3 | 60 % (wt/wt) | 3 |  |  |  |  |  | 
30 | 68±17 | 2 ± 1 | O=C(C=Cc1ccc2ccccc2n1)c1ccncc1 [PFK15, 1-(4-pyridinyl)-3-(2-quinolinyl)-2-propen-1-one] | 68 | 1.7 |  |  | 60 | did not significantly reduce ECAR | significantly decreased | approximately 8 fold | reduced CD86 expression | did not significantly decrease
